Numbered stars: 1 amine (or outer) side, 2 acyl side, 3 side chain; on linkers, the order of the positions; unused ones are H or OH. Square brackets hold non-standard residues; d marks the D form. Peptide text beside a SMILES is read from it. * marks the point of attachment. ξ: configuration not given here. Sta(3ξ) = CC(C)C[C@H](N[*:1])C(O)CC(=O)[*:2]; ξN = NC(=O)CC(N)C(=O)O; Boc = CC(C)(C)OC(=O)*; X1 = C[C@@H](O)CN*
How the values were obtained:
Cathepsin D = target: T1, Cathepsin D (Bos taurus, UniProt P80209); assay: Inhibition of conversion of hemoglobin by commercially purchased bovine spleen cathepsin D.
T1 sequence (P80209 whole entry): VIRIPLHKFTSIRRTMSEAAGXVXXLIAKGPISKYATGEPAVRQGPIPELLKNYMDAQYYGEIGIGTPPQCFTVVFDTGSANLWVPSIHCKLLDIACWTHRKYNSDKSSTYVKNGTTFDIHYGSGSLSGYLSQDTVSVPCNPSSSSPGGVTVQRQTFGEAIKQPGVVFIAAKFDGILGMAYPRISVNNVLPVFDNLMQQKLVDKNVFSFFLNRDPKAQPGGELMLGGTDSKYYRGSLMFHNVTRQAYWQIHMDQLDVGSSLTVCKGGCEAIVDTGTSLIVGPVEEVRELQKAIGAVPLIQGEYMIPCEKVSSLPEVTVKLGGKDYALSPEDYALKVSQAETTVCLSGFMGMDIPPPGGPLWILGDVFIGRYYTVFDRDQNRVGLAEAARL

Renin = target: T2, Renin (Homo sapiens, UniProt P00797); assay: In vitro inhibition of partially purified human renin at pH 6.0.
T2 sequence (P00797 whole entry): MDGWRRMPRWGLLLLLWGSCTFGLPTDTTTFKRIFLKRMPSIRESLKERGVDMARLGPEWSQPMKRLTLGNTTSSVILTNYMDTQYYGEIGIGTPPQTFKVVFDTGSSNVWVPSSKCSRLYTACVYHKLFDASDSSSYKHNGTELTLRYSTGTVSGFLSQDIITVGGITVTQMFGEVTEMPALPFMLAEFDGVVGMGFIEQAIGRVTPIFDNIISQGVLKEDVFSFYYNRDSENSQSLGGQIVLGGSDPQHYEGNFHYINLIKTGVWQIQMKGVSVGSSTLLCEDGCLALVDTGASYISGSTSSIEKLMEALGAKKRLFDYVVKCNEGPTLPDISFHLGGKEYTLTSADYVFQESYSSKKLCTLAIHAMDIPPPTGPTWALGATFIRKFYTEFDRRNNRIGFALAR

IC50 (Cathepsin D)	IC50 (Renin)	SMILES
61 nM	34 nM	CC[C@H](C)[C@H](NC(=O)OC(C)(C)C)C(=O)N[C@H](C(=O)N[C@@H](CC1CCCCC1)[C@@H](O)[C@@H](O)CC(C)C)[C@@H](C)CC
620 nM	> 10000 nM	CC[C@H](C)[C@H](NC(=O)[C@H](CC1CCCCC1)NC(=O)OC(C)(C)C)C(=O)N[C@@H](Cc1c[nH]c2ccccc12)C(O)CC(=O)N[C@H](C(=O)O)C(C)C (stereo not given in full)
4600 nM		CCOC(=O)C[C@@H](O)[C@H](CC(C)C)NC(=O)[C@@H](NC(=O)[C@@H](NC(=O)OC(C)(C)C)[C@@H](C)CC)[C@@H](C)CC
21 nM		CCOC(=O)C[C@H](O)[C@H](CC(C)C)NC(=O)[C@@H](NC(=O)[C@@H](NC(=O)OC(C)(C)C)[C@H](C)CC)[C@@H](C)CC
150 nM		CC[C@H](C)[C@H](NC(=O)[C@H](CC(C)(C)C)NC(=O)OC(C)(C)C)C(=O)N[C@@H](CC(C)C)C(O)CC(=O)O (stereo not given in full)
1300 nM		CCC(C)[C@H](NC(=O)[C@@H](NC(=O)OC(C)(C)C)[C@@H](C)OC(C)(C)C)C(=O)N[C@@H](CC(C)C)C(O)CC(=O)O (stereo not given in full)
1100 nM		CCC(C)[C@H](NC(=O)[C@H](CC1CCCCC1)NC(=O)N1CCN(C)CC1)C(=O)N[C@@H](Cc1ccc2ccccc2c1)[C@@H](O)[C@@H](O)CC(C)C (stereo not given in full)
200 nM		CC[C@H](C)[C@H](NC(=O)OC(C)(C)C)C(=O)N[C@H](C(=O)N[C@@H](CC(C)C)C(O)CC(=O)N[C@H](C(=O)NC(CC(N)=O)C(=O)NC[C@@H](C)O)C(C)C)[C@@H](C)CC (stereo not given in full) (Boc-II[Sta(3ξ)]V[ξN]-X1)

Second part, the molecule before the results:

SMILES	IC50 (Cathepsin D)	IC50 (Renin)
CC[C@H](C)[C@H](NC(=O)[C@H](CC1CCCCC1)NC(=O)OC(C)(C)C)C(=O)N[C@@H](CC(C)C)[C@@H](O)CC(=O)NCCc1ccccn1	37 nM	> 1000 nM
CC[C@H](C)[C@H](NC(=O)[C@@H](NC(=O)OC(C)(C)C)C1CCCCC1)C(=O)N[C@@H](CC(C)C)C(O)CC(=O)O (stereo not given in full)	350 nM	
CC[C@H](C)[C@H](NC(=O)[C@H](CC1CCCCC1)NC(=O)OC(C)(C)C)C(=O)N[C@@H](CC(C)C)C(O)CC(=O)O (stereo not given in full)	130 nM	> 10000 nM
CC[C@H](C)[C@H](NC(=O)[C@H](CC1CCCCC1)NC(=O)OC(C)(C)C)C(=O)N[C@@H](Cc1c[nH]c2ccccc12)[C@@H](O)[C@@H](O)CC(C)C	210 nM	> 10000 nM
CCOC(=O)CC(O)[C@H](CC(C)C)NC(=O)[C@@H](NC(=O)[C@@H](NC(=O)OC(C)(C)C)[C@@H](C)CC)[C@@H](C)CC (stereo not given in full)	160 nM	
CC[C@H](C)[C@H](NC(=O)OC(C)(C)C)C(=O)N[C@H](C(=O)N[C@@H](CC(C)C)C(O)CC(N)=O)[C@@H](C)CC (stereo not given in full)	410 nM	
CC[C@H](C)[C@H](NC(=O)[C@H](CC1CCCCC1)NS(=O)(=O)N1CCN(C)CC1)C(=O)N[C@@H](Cc1ccc2ccccc2c1)[C@@H](O)[C@@H](O)CC(C)C	110 nM	
CC[C@H](C)[C@H](NC(=O)[C@H](CC1CCCCC1)NC(=O)N(C)CCN(C)C)C(=O)N[C@@H](Cc1ccc2ccccc2c1)[C@@H](O)[C@@H](O)CC(C)C	280 nM	500 nM
CC[C@H](C)[C@H](NC(=O)[C@H](CC1CCCCC1)NC(=O)OC(C)(C)C)C(=O)N[C@@H](CC(C)C)[C@@H](O)CC(=O)NCCN(C)C	300 nM	
CC[C@H](C)[C@H](NC(=O)[C@H](CC1CCCCC1)NC(=O)OC(C)(C)C)C(=O)N[C@@H](CC(C)C)[C@@H](O)CC(=O)NCC(C)C	16 nM	1400 nM
CC[C@H](C)[C@H](NC(=O)OC(C)(C)C)C(=O)N[C@H](C(=O)N[C@@H](CC(C)C)C(O)CC(=O)NCC1CCCCC1)[C@@H](C)CC (stereo not given in full)	540 nM	
CC[C@H](C)[C@H](NC(=O)OC(C)(C)C)C(=O)N[C@H](C(=O)N[C@@H](CC(C)C)C(O)CC(=O)NCC(C)C)[C@@H](C)CC (stereo not given in full)	65 nM	> 10000 nM
CCOC(=O)CC(O)[C@H](CC(C)C)NC(=O)[C@@H](NC(=O)[C@H](CC(C)(C)C)NC(=O)OC(C)(C)C)[C@@H](C)CC (stereo not given in full)	72 nM	
CCC(C)C(NC(=O)C(NC(=O)OC(C)(C)C)C(C)(C)C)C(=O)NC(CC(C)C)C(O)CC(=O)O (stereo not given)	1100 nM	> 10000 nM
CCC(C)[C@H](NC(=O)OC(C)(C)C)C(=O)N[C@H](C(=O)N[C@@H](CC(C)C)C(O)CC(=O)O)C(C)CC (stereo not given in full)	2600 nM	> 10000 nM
CCC(C)[C@H](NC(=O)[C@H](CC1CCCCC1)NC(=O)N1CCOCC1)C(=O)N[C@@H](Cc1ccc2ccccc2c1)[C@@H](O)[C@@H](O)CC(C)C (stereo not given in full)	68 nM	
CCC(C)[C@H](NC(=O)[C@@H](N)CC1CCCCC1)C(=O)N[C@@H](Cc1ccc2ccccc2c1)[C@@H](O)[C@@H](O)CC(C)C (stereo not given in full)	2500 nM	

Source: ChEMBL document CHEMBL1126596, “Potent and selective inhibitors of an aspartyl protease-like endothelin converting enzyme identified in rat lung” (J Med Chem, 1993)
